Results reported in US9540323B2 (BRISTOL-MYERS SQUIBB COMPANY, priority 2012, dated 2017).

What was measured:
[1] = target: cloned human P2Y1 receptors (Homo sapiens (Human), UniProt P47900); assay: Binding Assay B - Scintillation Proximity Assay (SPA) for P2Y1 binding, [33P] 2MeS-ADP; settings: SPA, 0.3 nM [33P] 2MeS-ADP, Cheng-Prusoff; read-out: P2Y1 Ki (nM) using binding assay B
Method: Binding Assay B—Scintillation Proximity Assay (SPA) for P2Y1 Binding
A SPA membrane binding assay was used to identify inhibitors of [^33P] […] Reactions were allowed to proceed to completion at room temperature for 1 hour followed by centrifugation of the plate for 5 min. About 40 μL of the aqueous solution was aspirated. Plates were sealed and the [^33P]

[2] = test system: human platelet rich plasma (PRP); assay: ADP induced platelet aggregation assay; settings: Homo sapiens, Platelet, 5 min, read-out: PA IC50 (μM) @ 10 μM ADP, human PRP, 10 μM ADP, AUC at 5 minute

Sequence of cloned human P2Y1 receptors (P47900 whole entry): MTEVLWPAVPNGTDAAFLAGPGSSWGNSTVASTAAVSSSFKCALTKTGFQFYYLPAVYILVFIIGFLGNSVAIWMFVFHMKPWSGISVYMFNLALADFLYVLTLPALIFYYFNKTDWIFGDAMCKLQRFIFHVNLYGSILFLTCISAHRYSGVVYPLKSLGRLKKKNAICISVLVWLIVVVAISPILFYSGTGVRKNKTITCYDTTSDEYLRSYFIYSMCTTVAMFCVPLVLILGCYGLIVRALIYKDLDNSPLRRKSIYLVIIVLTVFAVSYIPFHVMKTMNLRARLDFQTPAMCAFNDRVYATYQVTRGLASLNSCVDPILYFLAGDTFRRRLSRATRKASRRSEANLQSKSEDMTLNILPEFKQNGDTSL

Compound | Ki [1] [nM] | IC50 [2] [µM]
CC1(C)CN(c2ccccc2NC(=O)Nc2csc(Cl)n2)c2c(O)ccc(-c3nc4cc(Cl)ccc4s3)c21 [Example 147, 1-(2-(4-(5-Chlorobenzo[d]thiazol-2-yl)-7-hydroxy-3,3-dimethylindolin-1-yl)phenyl)-3-(2-chlorothiazol-4-yl)urea] | 70.8 | 0.77
CC1(C)CN(c2ccccc2NC(=O)Nc2ccc(OC(F)(F)F)cc2)c2c(O)cc(F)c(-c3nc4ccc(Cl)cc4s3)c21 [Example 148, 1-(2-(4-(6-Chlorobenzo[d]thiazol-2-yl)-5-fluoro-7-hydroxy-3,3-dimethylindolin-1-yl)phenyl)-3-(4-(trifluoromethoxy)phenyl)urea] | 83 | 0.68
CC1(C)CN(c2ccccc2NC(=O)Nc2ccc(OC(F)(F)F)cc2)c2c(O)cc(F)c(-c3ccc(C(F)(F)F)cn3)c21 [Example 149, 1-(2-(5-Fluoro-7-hydroxy-3,3-dimethyl-4-(5-(trifluoromethyl)pyridin-2-yl)indolin-1-yl)phenyl)-3-(4-(trifluoromethoxy)phenyl)urea] | 13 | 0.11
CC1(C)CN(c2ccccc2NC(=O)Nc2csc(Cl)n2)c2c(O)cc(F)c(-c3nc4ccc(F)cc4s3)c21 [Example 150, 1-(2-Chlorothiazol-4-yl)-3-(2-(5-fluoro-4-(6-fluorobenzo[d]thiazol-2-yl)-7-hydroxy-3,3-dimethylindolin-1-yl)phenyl)urea] | 32.7 | 0.41
CC1(C)CN(c2ccccc2NC(=O)Nc2ccc(OC(F)(F)F)cc2)c2c(O)cc(F)c(-c3nc4cc(F)ccc4s3)c21 [Example 151, 1-(2-(5-Fluoro-4-(5-fluorobenzo[d]thiazol-2-yl)-7-hydroxy-3,3-dimethylindolin-1-yl)phenyl)-3-(4-(trifluoromethoxy)phenyl)urea] | 24.1 | 0.48
CC1(C)CN(c2ccccc2NC(=O)Nc2nc3ccc(F)cc3s2)c2c(O)cc(F)c(-c3nc4cc(F)ccc4s3)c21 [Example 152, 1-(2-(5-Fluoro-4-(5-fluorobenzo[d]thiazol-2-yl)-7-hydroxy-3,3-dimethylindolin-1-yl)phenyl)-3-(6-fluorobenzo[d]thiazol-2-yl)urea] | 25.4 | 0.3
CC1(C)CN(c2ccccc2NC(=O)Nc2nc3ccc(Cl)nc3s2)c2c(O)cc(F)c(-c3nc4cc(F)ccc4s3)c21 [Example 153, 1-(5-Chlorothiazolo[5,4-b]pyridin-2-yl)-3-(2-(5-fluoro-4-(5-fluorobenzo[d]thiazol-2-yl)-7-hydroxy-3,3-dimethylindolin-1-yl)phenyl)urea] | 15.4 | 0.23
CC1(C)CN(c2ccccc2NC(=O)Nc2nc3ccc(Cl)cc3s2)c2c(O)cc(F)c(-c3nc4cc(F)ccc4s3)c21 [Example 154, 1-(6-Chlorobenzo[d]thiazol-2-yl)-3-(2-(5-fluoro-4-(5-fluorobenzo[d]thiazol-2-yl)-7-hydroxy-3,3-dimethylindolin-1-yl)phenyl)urea] | 22.5 | 0.35
CC1(C)CN(c2ccccc2NC(=O)Nc2nc3ccc(F)cc3s2)c2c(O)cc(F)c(-c3nc4ccc(Cl)cc4s3)c21 [Example 155, 1-(2-(4-(6-Chlorobenzo[d]thiazol-2-yl)-5-fluoro-7-hydroxy-3,3-dimethylindolin-1-yl)phenyl)-3-(6-fluorobenzo[d]thiazol-2-yl)urea] | 38 | 0.6
CC1(C)CN(c2ccccc2NC(=O)Nc2nc3ccc(F)nc3s2)c2c(O)cc(F)c(-c3nc4cc(Cl)ccc4s3)c21 [Example 157, 1-(2-(4-(5-Chlorobenzo[d]thiazol-2-yl)-5-fluoro-7-hydroxy-3,3-dimethylindolin-1-yl)phenyl)-3-(5-fluorothiazolo[5,4-b]pyridin-2-yl)urea] | 18.7 | 0.28
CC1(C)CN(c2ccccc2NC(=O)Nc2nc3ccc(F)cc3s2)c2c(O)cc(F)c(-c3ccc(C(F)(F)F)nc3)c21 [Example 158, 1-(2-(5-Fluoro-7-hydroxy-3,3-dimethyl-4-(6-(trifluoromethyl)pyridin-3-yl)indolin-1-yl)phenyl)-3-(6-fluorobenzo[d]thiazol-2-yl)urea] | 5.7 | 0.2
CC1(C)CN(c2ccccc2NC(=O)Nc2ccc(OC(F)(F)F)cc2)c2c(O)cc(F)c(-c3ccc(F)cn3)c21 [Example 159, 1-(2-(5-Fluoro-4-(5-fluoropyridin-2-yl)-7-hydroxy-3,3-dimethylindolin-1-yl)phenyl)-3-(4-(trifluoromethoxy)phenyl)urea] | 7.4 | 0.3
CC(C)(C)c1ncc(-c2c(F)cc(O)c3c2C(C)(C)CN3c2ccccc2NC(=O)Nc2ccc(OC(F)(F)F)cc2)cn1 [Example 160, 1-(2-(4-(2-(tert-Butyl)pyrimidin-5-yl)-5-fluoro-7-hydroxy-3,3-dimethylindolin-1-yl)phenyl)-3-(4-(trifluoromethoxy)phenyl)urea] | 13.1 | 0.09
CC1(C)CN(c2ccccc2NC(=O)Nc2ccc(OC(F)(F)F)cc2)c2c(O)cc(F)c(-c3cc(F)nc(F)c3)c21 [Example 161, 1-(2-(4-(2,6-Difluoropyridin-4-yl)-5-fluoro-7-hydroxy-3,3-dimethylindolin-1-yl)phenyl)-3-(4-(trifluoromethoxy)phenyl)urea] | 6.6 | 0.16
CC1(C)CN(c2ccccc2NC(=O)Nc2ccc(OC(F)(F)F)cc2)c2c(O)cc(F)c(-c3ccc(Cl)cn3)c21 [Example 162, 1-(2-(4-(5-Chloropyridin-2-yl)-5-fluoro-7-hydroxy-3,3-dimethylindolin-1-yl)phenyl)-3-(4-(trifluoromethoxy)phenyl)urea] | 6.4 | 0.25
CC1(C)CN(c2ccccc2NC(=O)Nc2ccc(OC(F)(F)F)cc2)c2c(O)cc(F)c(-c3cnc(Cl)cn3)c21 [Example 163, 1-(2-(4-(5-Chloropyrazin-2-yl)-5-fluoro-7-hydroxy-3,3-dimethylindolin-1-yl)phenyl)-3-(4-(trifluoromethoxy)phenyl)urea] | 43.1 | 0.26
CC1(C)CN(c2ccccc2NC(=O)Nc2ccc(OC(F)(F)F)cc2)c2c(O)cc(F)c(-c3ncc(F)cn3)c21 [Example 164, 1-(2-(5-Fluoro-4-(5-fluoropyrimidin-2-yl)-7-hydroxy-3,3-dimethylindolin-1-yl)phenyl)-3-(4-(trifluoromethoxy)phenyl)urea] | 10.8 | 0.95
CC(C)(C)c1ccc(-c2c(F)cc(O)c3c2C(C)(C)CN3c2ccccc2NC(=O)Nc2ccc(OC(F)(F)F)cc2)cn1 [Example 165, 1-(2-(4-(6-(tert-Butyl)pyridin-3-yl)-5-fluoro-7-hydroxy-3,3-dimethylindolin-1-yl)phenyl)-3-(4-(trifluoromethoxy)phenyl)urea] | 26.8 | 0.21
CC1(C)CN(c2ccccc2NC(=O)Nc2nc3ccc(F)cc3s2)c2c(O)cc(F)c(-c3ccc(C(F)(F)F)cn3)c21 [Example 168, 1-(2-(5-Fluoro-7-hydroxy-3,3-dimethyl-4-(5-(trifluoromethyl)pyridin-2-yl)indolin-1-yl)phenyl)-3-(6-fluorobenzo[d]thiazol-2-yl)urea] | 29.4 | 0.45
CC1(C)CN(c2ccccc2NC(=O)Nc2ccc(OC(F)(F)F)cc2)c2c(O)ccc(-c3nc4cc(F)ccc4s3)c21 [Example 170, 1-(2-(4-(5-Fluorobenzo[d]thiazol-2-yl)-7-hydroxy-3,3-dimethylindolin-1-yl)phenyl)-3-(4-(trifluoromethoxy)phenyl)urea] | 14.1 | 0.25
CC1(C)CN(c2ccccc2NC(=O)Nc2nc3ccc(F)nc3s2)c2c(O)cc(F)c(-c3nc4ccc(F)cc4s3)c21 [Example 178, 1-(2-(5-Fluoro-4-(6-fluorobenzo[d]thiazol-2-yl)-7-hydroxy-3,3-dimethylindolin-1-yl)phenyl)-3-(5-fluorothiazolo[5,4-b]pyridin-2-yl)urea] | 17.9 | 0.74
COc1ccc2nc(NC(=O)Nc3ccccc3N3CC(C)(C)c4c(-c5nc6ccc(F)cc6s5)c(F)cc(O)c43)sc2c1 [Example 179, 1-(2-(5-Fluoro-4-(6-fluorobenzo[d]thiazol-2-yl)-7-hydroxy-3,3-dimethylindolin-1-yl)phenyl)-3-(6-methoxybenzo[d]thiazol-2-yl)urea] | 22.6 | 0.49
CC1(C)CN(c2ccccc2NC(=O)Nc2csc(C(F)(F)F)n2)c2c(O)cc(F)c(-c3nc4cc(Cl)ccc4s3)c21 [Example 180, 1-(2-(4-(5-Chlorobenzo[d]thiazol-2-yl)-5-fluoro-7-hydroxy-3,3-dimethylindolin-1-yl)phenyl)-3-(2-(trifluoromethyl)thiazol-4-yl)urea] | 28.4 | 0.56
CC1(C)CN(c2ccccc2NC(=O)Nc2csc(Cl)n2)c2c(O)cc(F)c(-c3nc4cc(F)ccc4s3)c21 [Example 181, 1-(2-Chlorothiazol-4-yl)-3-(2-(5-fluoro-4-(5-fluorobenzo[d]thiazol-2-yl)-7-hydroxy-3,3-dimethylindolin-1-yl)phenyl)urea] | 9.7 | 0.49
CC1(C)CN(c2ccccc2NC(=O)Nc2nc3ccc(F)nc3s2)c2c(O)cc(F)c(-c3nc4cc(F)ccc4s3)c21 [Example 182, 1-(2-(5-Fluoro-4-(5-fluorobenzo[d]thiazol-2-yl)-7-hydroxy-3,3-dimethylindolin-1-yl)phenyl)-3-(5-fluorothiazolo[5,4-b]pyridin-2-yl)urea] | 15.7 | 0.51
Cn1nc(C(F)(F)F)cc1-c1c(F)cc(O)c2c1C(C)(C)CN2c1ccccc1NC(=O)Nc1ccc(OC(F)(F)F)cc1 [Example 183, 1-(2-(5-Fluoro-7-hydroxy-3,3-dimethyl-4-(1-methyl-3-(trifluoromethyl)-1H-pyrazol-5-yl)indolin-1-yl)phenyl)-3-(4-(trifluoromethoxy)phenyl)urea] | 11.3 | 0.21
